Experimental data from patent US11458094B2, “Compositions and methods for treating pulmonary edema or lung inflammation” (priority 2018, dated 2022).

Tests used:
[1] = tested on: hyperoxia-induced lung injury; experiment: Hyperoxia-induced lung injury in rats: lung histology and MPO immunostaining; type: in vivo, Sprague Dawley rats
Protocol: FIG. 17. […] Immunostaining was performed with primary: anti-MPO antibody. Black dots represent MPO-positive cells.
FIG. 18. […] (A) Control: room air; (B) Hyperoxia; (C) Hyperoxia+T3.
(§1) All experimental protocols for animal treatments were approved by the University of Minnesota Institutional Animal Care and Use Committee. […] The room-air control rats were kept in the University animal housing facility. At the end of hyperoxic exposure, rats were sacrificed by intraperitoneal pentobarbital injection, and the lungs were harvested; the right lobes were allocated for histopathology, measurement of lung tissue myeloperoxidase (MPO) activity and wet-to-dry weight ratio. The left lobes underwent bronchoalveolar lavage (BAL) to determine BAL protein concentrations and differential cell counts.
Lung tissue was removed and inflation fixed at 20 cm water pressure in 4% paraformaldehyde, paraffin embedded, cut as 5 micron sections and mounted onto poly-L-lysine slides. Sections were deparaffinized in xylene, rehydrated through a graded alcohol series in methanol, and placed in a 98° C. water bath for 30 minutes in citrate buffer (pH 6.0) for antigen retrieval. After quenching with 0.3% hydrogen peroxide in PBS, sections were incubated in normal serum for 30 minutes and for 15 minutes each with Avidin/Biotin Blocking Kit (Vector Laboratories, Inc., Burlingame, Calif.). […]

[2] = tested on: Nrf2; experiment: Western blot of Nrf2 (total cellular and nuclear) in RLE-6TN cells under hyperoxia; type: cell-based, rat; conditions: 24 hours hyperoxia, T3 10^−6 M
Source text: FIG. 9. […] The cells were then collected for Western Blotting analysis. (A) Cellular total protein of Nrf2. (B) Nuclear Nrf2.
FIG. 12. T3-induced increase in Nrf2 and HO-1 protein via PI3K in hyperoxia. (A) Western Blot and densitometry data for total Nrf2. (B) Western Blot and densitometry data for cytoplasmic Nrf2. (C) Western Blot and densitometry data for nuclear Nrf2.
Nuclei were extracted with NE-PER nuclear and cytoplasmic extraction reagents kit (Thermo Fisher Scientific, Inc., Waltham, Mass.) following the manufacturer's instruction.
(§2) The cells were lysed in lysis buffer containing 20 mM Tris·HCl (pH 7.5), 150 mM NaCl, 1 mM EDTA, 1 mM EGTA, 1% (vol/vol) Triton X-100 with protease inhibitors (1 mM PMSF, 2 μg/ml pepstatin, and 10 μg/ml each of aprotinin and leupeptin), and phosphatase inhibitors (2.5 mM sodium pyrophosphate, 1 mM β-glycerophosphate, and 1 mM Na3VO4). The lysate was drawn 10 times through a 25-gauge needle on ice for further lysis and then was centrifuged at 13,000 rpm for 15 minutes at 4° C. The supernatant was collected, and the protein concentrations were determined by use of the BCA protein assay kit (Sigma-Aldrich, St. Louis, Mo.). Immediately after this step, equal amounts of protein were subjected to Western blotting analysis.

[3] = tested on: myeloperoxidase (MPO) activity in lung tissue; experiment: Hyperoxia-induced lung injury in rats: lung myeloperoxidase (MPO) assay; type: in vivo, Sprague Dawley rats; conditions: 60 hours hyperoxia, ip T3
Source text: as §1
To quantify the neutrophil activity in the lung, MPO activity was assayed as previously described (Abraham et al., J Immunol 165:2950-2954, 2000). Lung tissues without prior lavage were frozen in liquid nitrogen, weighed, and stored at −86° C. The lungs were homogenized for 30 seconds in 1.5 ml 20 mM potassium phosphate, pH 7.4, and centrifuged at 4° C. for 30 minutes at 40,000×g. The pellet was resuspended in 1.5 ml 50 mM potassium phosphate, pH 6.0, containing 0.5% hexadecyltrimethylammonium bromide, sonicated for 90 seconds, incubated at 60° C. for two hours, and centrifuged at 14,000 rpm for 30 minutes at 4° C. The supernatant was assayed for peroxidase activity corrected to lung weight. MPO was expressed as activity per gram of lung tissue.

[4] = tested on: HO-1; experiment: Western blot of HO-1 in RLE-6TN cells under hyperoxia; type: cell-based, rat; conditions: T3 10^−6M
Protocol: (§3) FIG. 10. HO-1 Upregulation is required for T3-increased RLE-6TN cell survival in hyperoxia. […] The cells were then collected for Western Blot analysis. (B) The cells were incubated in 21% O2 and 5% CO2 for 72 hours in the present of HO-1 inhibitor Tin Protoporphyrin IX(10^-6M) tinT3 (10^−6M). […] Cell viability is assessed with trypan blue. The number of viable cells under specific conditions is presented as a percentage of the cell number related to hyperoxia alone. Data are mean±s.d. of three independent experiments with *=P<0.05; **=P<0.01.
as §2

[5] = tested on: rat lung mucosa and airspaces; conditions: in vivo
Protocol: (§4) Therefore, the liothyronine sodium and the vehicle were adjusted to neutral pH (6.0-8.0) with sterile 1.0 N HCl (Sigma-Aldrich, St. Louis, Mo.) added aseptically in a biosafety cabinet prior to intratracheal instillation into animals. Using aseptic technique, vials of liothyronine sodium were opened and the entire contents were transferred into sterile 1.5 mL Eppendorf tubes. 80-90 μL of 1.0 N HCl was added to the tube and gently vortexed, and the pH was measured using pH test strips (pH 4.5 to 10.0, Ricca Chemical Co., Arlington, Tex.). Additional HCl was titrated in gradually, as needed, until the pH was in the desired range. […] This solution was stored at 4° C. and used for up to 26 hours after pH adjustment procedure. […] The vehicle was also adjusted to neutral pH (6.0-8.0) with 1.0 N HCl as described above. Using aseptic technique the vehicle was filter sterilized and aliquoted into 21 sterile disposable tubes (5 mL each) and stored at 4° C., and a new tube was opened for each day of use. Normal Saline (0.9% Sodium Chloride Injection USP, B. Braun Medical, Inc., Bethlehem, Pa.), was stored at room temperature. A new package was opened for each day of use.

[6] = Toxicity phase: intratracheal instillation once daily for five consecutive days (GLP safety study); type: in vivo, Sprague-Dawley rats
Protocol: Safety studies are described in Example 3, below. In a safety study conducted in compliance with Good Laboratory Practices (GLPs), 0.3 mL (300 μl) was administered to rats weighing 250-350 grams via intratracheal instillation daily for five consecutive days. […] The calculated dose based on lung weight was about 1.57 μg/g wet lung weight.
This study was conducted using both male and female Sprague-Dawley rats (Envigo, Huntingdon, United Kingdom). Evaluation of the safety of the tracheal route of instillation for liothyronine sodium injection in human clinical trials can be accomplished in this species at appropriate dose levels. Furthermore, responses to thyroid hormone in rats are similar to responses in humans, and the choice of the rat model is based in large part on pharmacologic data from studies of thyroid hormone and associated receptors and physiological responses in rat lung. The University of Minnesota is accredited by the Association for the Assessment and Accreditation of Laboratory Animal Care, International (AAALAC) and registered with the United States Department of Agriculture to conduct research in laboratory animals. Animal studies conformed to NIH guidelines (Guide for the Care and Use of Laboratory Animals. NIH publication No. 86-23. Revised 1985). The protocol was reviewed and approved, as applicable, by the Institutional Animal Care and Use Committee (IACUC) at the University of Minnesota for compliance with regulations prior to study initiation or implementation of amended activities.
Sixty animals (plus two spare animals/sex/group) were anesthetized and dosed via intratracheal instillation of test or control materials for five consecutive days. On the day after the last dose a terminal blood collection was performed for clinical pathology, after which animals were euthanized and a gross examination of all organs was performed by a board certified veterinary pathologist. Select tissues were collected for histopathology. […] Terminal blood collection was performed at two designated time points per animal up to 24 hours after administration for toxicokinetic evaluation. TK animals were euthanized without further evaluation after the final blood collection. All animals were acclimated for a minimum of seven days prior to the dosing procedure. Animals underwent baseline observations and examinations prior to the initiation of the study, and clinical observations and body weight monitoring were performed throughout the in-life portion of the study. All animals received the same dose volume (0.3 mL) of either test or control materials. This maximum feasible dose (MFD) is constrained by the maximum volume that can be safely and reproducibly (over five days) instilled into lungs of rats weighing 250 g to 350 g, which was determined in preliminary toxicology studies to be 0.3 mL. Actual doses delivered are reported as both μg/kg body weight and μg/gm wet lung weight. The toxicity phase animals were 72-135 days of age at the time of initial dosing. Males weighed between 256.52 g and 307.50 g with a mean±standard deviation of 286.74±11.77 g, and females weighed between 250.46 g and 299.01 g with a mean±standard deviation of 260.64±10.34 g. The TK phase animals were 68-144 days of age at the time of initial dosing. Males weighed between 261.23 g and 316.19 g; females weighed between 250.06 g and 280.32 g.
Test and control materials were drawn into dosing syringes using aseptic technique. Using a 18G needle, 0.5 mL of air was drawn into a 1 cc syringe followed by 0.3 mL (300 μL) of the solutions. Animals were anesthetized with a combination of ketamine, 40 mg/kg to 200 mg/kg, and xylazine, 1 mg/kg to 7 mg/kg intraperitoneally (IP), to effect. The dose was adjusted daily, as needed, based on individual animal response and recovery. Depth of anesthesia was evaluated by toe pinch, and eye lubricant was applied to the eyes. […]

[7] = tested on: rat lung mucosa and airspaces; experiment: Preliminary studies: intratracheal instillation of liothyronine sodium without pH adjustment; conditions: rats, pH of >10.0 as supplied commercially
Protocol: as §4

[8] = Preliminary dose-finding studies, 3.0 μg neutral pH T3 intravenous vs intratracheal; type: in vivo, rats
[9] = tested on: Akt; experiment: Akt phosphorylation (Ser473) in RLE-6TN cells under hyperoxia; type: cell-based, rat; conditions: hyperoxia 24 hours, T3 added for 20 minutes, vs room air control and hyperoxia alone
Protocol: as §2

[10] = tested on: hyperoxia-induced lung injury; experiment: Hyperoxia-induced lung injury in rats: bronchoalveolar lavage protein and cell number; type: in vivo, Sprague Dawley rats; conditions: ip T3
Source text: as §1
Bronchoalveolar lavage (BAL) of the left lung was performed using a modification of a method previously described (Pace et al., Exp Lung Res 35:380-398, 2009). Briefly, 4 mls of ice-chilled 1× PBS (pH 7.4) were instilled into the left lung, withdrawn, and re-instilled two subsequent times prior to analysis of the lavage fluid. The retrieved BAL fluid was centrifuged at 1500 rpm for 10 minutes to remove cells and debris. The cell pellet was resuspended in 1 ml of 1× PBS (pH 7.4) and total cell number was counted using a hemocytometer. BAL cytospin preparations were stained using the Hema3 stain kit (Thermo Fisher Scientific, Inc., Waltham, Mass.) to identify the nucleated cells. The protein concentration was determined on the supernatants of BAL fluid using a standard BCA assay (Sigma-Aldrich, St. Louis, Mo.).

[11] = single oral dose of 50 micrograms; cited from earlier work
[12] = tested on: RLE-6TN cells; experiment: RLE-6TN cell survival and recovery under hyperoxia, viable cells by trypan blue exclusion; type: cell-based, rat
Protocol: FIG. 7. […] The cells were cultured in DMEM/F12 with 10% FBS in 21% O2 and 5% CO2 overnight. […] The viable cells are counted immediately after 72-hour hyperoxia exposure. Cell viability is assessed with trypan blue. The amount of viable cells under specific conditions is presented as a percentage of the cell number from hyperoxia alone. Data are mean±s.d. of four independent experiments with *=P<0.05; **=P<0.01.
FIG. 8. […] In both (A) and (B), the number of viable cells under specific conditions is presented as a percentage of the cell number related to hyperoxia alone in the same experiment. Data are mean±s.d. of four independent experiments with *=P<0.05; **=P<0.01.
as §3
FIG. 11. PI3K inhibitor wortmannin blocked T3-induced cell survival in hyperoxia. […] Cell viability is assessed with trypan blue. The number of viable cells under specific conditions is presented as a percentage of the cell number related to hyperoxia alone. Data are mean±s.d. of four independent experiments with *=P<0.05; **=P<0.01.
At the end of the hyperoxia exposure period, the viable cells were counted by trypan blue dye exclusion.

SMILES: N[C@@H](Cc1cc(I)c(Oc2ccc(O)c(I)c2)c(I)c1)C(=O)O [T3, triiodothyronine]
- MPO-positive cells in the lungs vs hyperoxia without T3 ([1]; 95% oxygen 60 hours, T3-injected): fewer MPO-positive cells
- lung morphology (histopathology) ([1]; 60 hours hyperoxia, systemic T3 supplementation): virtually normal lung morphology
- nuclear Nrf-2 protein expression [2]: significantly increased
- total cellular Nrf-2 protein expression [2]: significantly increased
- hyperoxia-induced lung MPO activity [3]: significantly reduced
- total cellular protein of HO-1 [4]: significantly enhanced
- toxicity to rat lung mucosa and airspaces [5]: extremely toxic
- body weight at terminal euthanasia vs pre-dose ([6]; T3 females, toxicity phase): weighed slightly less than their pre-dose weight
- animals that died after dose administration ([6]; T3 test group, toxicity phase, judged not test article related): two
- clinical observations ([6]; during the course of the study): No adverse T3 related clinical observations
- regain of body weight ([6]; female rats, toxicity phase, vs males or control groups): did not regain body weight at the same rate
- hematology parameters ([6]; male rats): no statistical or clinically significant changes
- treatment-related macroscopic or microscopic findings in end organs ([6]; toxicity phase rats): no macroscopic or microscopic findings
- organ weight of the lungs ([6]; toxicity phase rats, five days intratracheal): no differences
- tolerance of intratracheal instillation [7]: do not tolerate
- acute effects on physiologic parameters (respiratory rate, O2 saturation, heart rate) ([8]; five days of intratracheal delivery of 3.0 μg neutral pH T3): no acute effects
- acute effects on physiologic parameters (respiratory rate, O2 saturation, heart rate) ([8]; single intravenous delivery of 3.0 μg neutral pH T3): no acute effects
- phosphorylation of Akt at Ser473 [9]: augmented
- hyperoxic increase in BALF protein concentration ([10]; 48 hour hyperoxia): attenuated significantly
- BALF cell numbers vs hyperoxia alone ([10]; 48 hours hyperoxia): significantly reduced
- hyperoxic increase in BALF protein concentration ([10]; 60 hour hyperoxia): attenuated significantly
- BALF cell numbers vs hyperoxia alone ([10]; 60 hours hyperoxia): significantly reduced
- mean half-life [11]: 22.5 h

SMILES: C=Cc1c2[n-]c(c1C)/C=c1\[n-]/c(c(C)c1C=C)=C\c1[n-]c(c(CCC(=O)O)c1C)C=c1[n-]/c(c(C)c1CCC(=O)O)=C\2.[Sn+4] [Tin protoporphyrin, Tin Protoporphyrin IX]
- AT2 cell number in room air ([12]; 21% O2 72 hours, 10^-6M): no effect
- effect on T3-caused increase in cell survival in hyperoxia ([12]; 90% O2 72 hours, with T3 10^−6M, inhibitor 10^-6M): blocked

SMILES: NC(Cc1ccc(Oc2cc(I)c(O)c(I)c2)c(I)c1)C(=O)O (centres unmarked) [rT3]
- cell survival under hyperoxia ([12]; 90% oxygen 72 hours, 10^−6M): no role in cell survival
